Assay results taken from patent publication US8962057B2, “Methods for improving taste and oral care compositions with improved taste” (The Procter & Gamble Company, priority 2009, dated 2015).
Where two headings read alike, the source gives them in different places. One block for each molecule: values may come before it.

Legend:
[1] = molecular target: T1, TRPV1 (Homo sapiens, UniProt Q8NER1); experiment: TRPV1 enhancement, enhancer added after TRPV1 activator capsaicin; format: cell-based
T1 construct: expressed in transfected cells
Procedure: In order to determine whether TRPV1 is activated, the intracellular calcium ion (Ca^+2) levels in TRPV1 receptors is measured. […] (human embryonic kidney) cells stably transfected with human TRPV1 are grown in 15 ml growth medium [high glucose DMEM (Dulbecco's Modification of Eagle's Medium) supplemented with 10% FBS (fetal bovine serum), 100 μg/ml Penicillin/streptomycin, 100 μg/ml G418] in a 75 Cm^2 flask for 3 days at 33° C. in a mammalian cell culture incubator set at 5% CO2. Cells are detached with addition of 10 ml of PBS (phosphate buffered saline) by hand shaking gently. Cells are transferred to a 50 ml tube and centrifuged at 850 rpm for 3 minutes to remove PBS. After centrifugation, a pellet of cells is formed in the bottom of the tube separating them from the supernatant solution. […] Fluo-4 is a fluorescent dye used for quantifying cellular Ca^2+ concentrations in the 100 nM to 1 microM range. At the end of the 30 minutes, 45 ml of assay buffer [1×HBSS (Hank's Balanced Salt Solution), 20 mM HEPES (4-(2-Hydroxyethyl)-1-piperazineethanesulfonic acid)] is added to wash cells and the resulting combination is then centrifuged at 850 rpm for 3 minutes to remove excess buffer and Fluo-4 AM calcium indicator.
[…] […] For determining the direct effect of test compounds on TRPV1, fluorescence is measured immediately after addition of each compound.

[2] = Burning sensation on the standard Scoville hotness scale
[3] = molecular target: T1, TRPV1; experiment: TRPV1 enhancement, TRPV1 activator VBE and enhancer added together; format: cell-based; conditions: VBE 3.5 microMolar
Procedure: In order to determine whether TRPV1 is activated, the intracellular calcium ion (Ca^+2) levels in TRPV1 receptors is measured. […] (human embryonic kidney) cells stably transfected with human TRPV1 are grown in 15 ml growth medium [high glucose DMEM (Dulbecco's Modification of Eagle's Medium) supplemented with 10% FBS (fetal bovine serum), 100 μg/ml Penicillin/streptomycin, 100 μg/ml G418] in a 75 Cm^2 flask for 3 days at 33° C. in a mammalian cell culture incubator set at 5% CO2. Cells are detached with addition of 10 ml of PBS (phosphate buffered saline) by hand shaking gently. Cells are transferred to a 50 ml tube and centrifuged at 850 rpm for 3 minutes to remove PBS. After centrifugation, a pellet of cells is formed in the bottom of the tube separating them from the supernatant solution. The supernatant is discarded and the cell pellet is suspended in 1 ml of fresh growth medium to which 5 μl (12.5 μg) of Fluo-4 AM (Molecular Probes, Inc.) calcium indicator is added and incubated for 30 min with gentle shaking. Fluo-4 is a fluorescent dye used for quantifying cellular Ca^2+ concentrations in the 100 nM to 1 microM range. At the end of the 30 minutes, 45 ml of assay buffer [1×HBSS (Hank's Balanced Salt Solution), 20 mM HEPES (4-(2-Hydroxyethyl)-1-piperazineethanesulfonic acid)] is added to wash cells and the resulting combination is then centrifuged at 850 rpm for 3 minutes to remove excess buffer and Fluo-4 AM calcium indicator.
The pellet cells are re-suspended in 10 ml assay buffer and 90 μl aliquots (˜50,000 cells) per well delivered to a 96-well assay plate containing 10 μl of test compounds (1 mM in assay buffer, final concentration 100 μM) or buffer control and incubated at room temperature for 30 minutes. After 30 minutes, the plate is placed into a fluorometric imaging plate reader (FLIPR^384 from Molecular Devices) and basal fluorescence recorded (excitation wave length 488 nm and emission wave length 510 nm). The FLIPR assay is an accepted method for detecting changes in intracellular calcium concentration. Then 20 μl of the molecule being tested as a TRPV1 activator is added and fluorescence recorded. For determining the direct effect of test compounds on TRPV1, fluorescence is measured immediately after addition of each compound. Additional discussion of the FLIPR method can be found in Smart et al., Characterization using FLIPR of human vanilloid VR1 receptor pharmacology, European Journal of Pharmacology 417, 51-58 (2001) and Liu et al., Development and validation of a platelet calcium flux assay using a fluorescent imaging plate reader, Analytical Biochemistry 357, 216-224 (2006).
In a separate test, the TRPV1 activator (VBE) and the enhancer are added together. […] See the chart below.

[4] = molecular target: T1, TRPV1; experiment: FLIPR calcium flux assay for TRPV1 activation in transfected HEK cells; format: cell-based
Procedure: The term “TRPV1 activator” as used herein refers to any component which at a concentration of 1 mM gives a calcium flux count of at least 1000 counts above the background level of calcium present in the cell according to the FLIPR method as discussed herein. The term “count” is defined as the change in fluorescence of the transfected cell lines due to the influx of calcium across the cell membrane, which reacts with the calcium sensitive dye present within the cells.
In order to determine whether TRPV1 is activated, the intracellular calcium ion (Ca^+2) levels in TRPV1 receptors is measured. […] (human embryonic kidney) cells stably transfected with human TRPV1 are grown in 15 ml growth medium [high glucose DMEM (Dulbecco's Modification of Eagle's Medium) supplemented with 10% FBS (fetal bovine serum), 100 μg/ml Penicillin/streptomycin, 100 μg/ml G418] in a 75 Cm^2 flask for 3 days at 33° C. in a mammalian cell culture incubator set at 5% CO2. Cells are detached with addition of 10 ml of PBS (phosphate buffered saline) by hand shaking gently. Cells are transferred to a 50 ml tube and centrifuged at 850 rpm for 3 minutes to remove PBS. […] Fluo-4 is a fluorescent dye used for quantifying cellular Ca^2+ concentrations in the 100 nM to 1 microM range. […]
The pellet cells are re-suspended in 10 ml assay buffer and 90 μl aliquots (˜50,000 cells) per well delivered to a 96-well assay plate containing 10 μl of test compounds (1 mM in assay buffer, final concentration 100 μM) or buffer control and incubated at room temperature for 30 minutes. After 30 minutes, the plate is placed into a fluorometric imaging plate reader (FLIPR^384 from Molecular Devices) and basal fluorescence recorded (excitation wave length 488 nm and emission wave length 510 nm). […] Then 20 μl of the molecule being tested as a TRPV1 activator is added and fluorescence recorded. For determining the direct effect of test compounds on TRPV1, fluorescence is measured immediately after addition of each compound. […]

[5] = Consumer Test I: panelists brush with dentifrice and rate bothersome and bad aftertaste; format: in vivo, human; conditions: in dentifrice
Procedure: In order to show the effect of the addition of a TRPV1 activator and/or Vanitrope on the perception of taste in an oral care composition, the following compositions are made and given to consumers to sample.
The base of the control dentifrice (i.e. everything but the flavor) is made via vacuum mixing. The flavor is added in a second step my speed mixing to complete the control. The additional compositions are then made by speed mixing into the control base the TRPV1 activator and/or vanitrope plus flavor at the stated levels. The samples are then placed in tubes and delivered to the testing facility.
At the testing facility, panelists are provided with a generic brush with 1.0 g of toothpaste. Each panelist has an individual sink, mirror, disposable cup and paper towels. They are asked to brush as they normally would at home. Before and after brushing the panelist will answer a series of questions relating to their experience with the toothpaste. The panelists are asked to comment on their experience right after brushing and then at each hour interval for three hours. The comments from the consumers are translated into numerical values for comparison. The results for the above compositions as it related to bothersome and bad aftertaste are shown below.
Also included in the above testing are combinations of TRPV1 activators and/or vanitrope. The formulations for these tests are below and the control is the same as that listed above.

[6] = both bothersome and bad aftertaste, each of hours 1-3

T1 sequence (Q8NER1 whole entry): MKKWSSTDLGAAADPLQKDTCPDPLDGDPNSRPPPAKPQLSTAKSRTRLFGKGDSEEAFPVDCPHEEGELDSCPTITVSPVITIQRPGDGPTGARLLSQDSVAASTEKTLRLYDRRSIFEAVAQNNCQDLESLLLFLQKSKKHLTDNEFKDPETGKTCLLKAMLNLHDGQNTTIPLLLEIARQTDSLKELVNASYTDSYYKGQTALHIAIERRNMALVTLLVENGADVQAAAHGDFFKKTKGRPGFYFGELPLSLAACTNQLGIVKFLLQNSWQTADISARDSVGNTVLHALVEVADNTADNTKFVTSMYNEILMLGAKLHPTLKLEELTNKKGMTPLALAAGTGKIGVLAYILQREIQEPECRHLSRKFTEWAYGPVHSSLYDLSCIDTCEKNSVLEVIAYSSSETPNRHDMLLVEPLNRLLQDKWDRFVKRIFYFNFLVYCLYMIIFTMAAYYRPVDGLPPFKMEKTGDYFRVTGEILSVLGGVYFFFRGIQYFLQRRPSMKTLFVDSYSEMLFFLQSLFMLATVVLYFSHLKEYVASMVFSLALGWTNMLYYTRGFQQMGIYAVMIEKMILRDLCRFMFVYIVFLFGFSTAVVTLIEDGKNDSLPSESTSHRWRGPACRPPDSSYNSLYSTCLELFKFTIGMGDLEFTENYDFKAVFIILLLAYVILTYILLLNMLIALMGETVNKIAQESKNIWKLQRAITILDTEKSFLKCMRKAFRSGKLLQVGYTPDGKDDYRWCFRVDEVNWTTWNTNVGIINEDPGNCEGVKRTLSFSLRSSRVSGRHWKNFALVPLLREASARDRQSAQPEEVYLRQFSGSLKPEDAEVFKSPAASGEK

Molecule: CCCCC[C@H](O)CC(=O)CCc1ccc(O)c(OC)c1 [6-Gingerol]
'Hotness' (as log Scoville Units) ([2]; burning sensation): 4.9 log Scoville Units

Molecule: CCCCC/C=C/C(=O)CCc1ccc(O)c(OC)c1 [6-Shoagol]
'Hotness' (as log Scoville Units) ([2]; burning sensation): 5.1 log Scoville Units

Molecule: C=CCS[S+]([O-])CC=C (centres unmarked) [Allicin]
'Hotness' (as log Scoville Units) ([2]; burning sensation): 4.0 log Scoville Units

Molecule: CC(=O)/C=C/C1C(C)=CCCC1(C)C (stereo not drawn) [Alpha-Ionone]
% Enhancement [1]: 18.84%

Molecule: O=Cc1ccco1 [Furfural]
% Enhancement [1]: 19.29%

Molecule: COc1cc(CNC(=O)CCCCC/C=C/C(C)C)ccc1O [HomoCapsaicin]
'Hotness' (as log Scoville Units) [2]: 6.9 log Scoville Units

Molecule: COc1cc(CNC(=O)CCCCCCCC(C)C)ccc1O [HomodihydroCapsaicin]
'Hotness' (as log Scoville Units) [2]: 6.9 log Scoville Units

Molecule: COc1cc(CNC(=O)CCCCCC(C)C)ccc1O [NorhydroCapsaicin]
'Hotness' (as log Scoville Units) [2]: 7.0 log Scoville Units

Molecule: O=P([O-])([O-])OP(=O)([O-])[O-].[Na+].[Na+].[Na+].[Na+] [Tetrasodium Pyrophosphate]
% Enhancement [1]: 15.62%

Molecule: COc1cc(CCC(C)=O)ccc1O [Zingerone]
'Hotness' (as log Scoville Units) ([2]; burning sensation): <4.0 log Scoville Units | taste versus control [5, 6]: improved taste over the control

The next lines start with results.

% Enhancement [1]: 17.5%
Molecule: CC(C)=CCCC(C)C=O (centres unmarked) [2,6-Dimethyl-5-Heptenal]

% Enhancement [1]: 19.87%
Molecule: CCCCCCC(C)=O [2-Octanone]

Percent Enhancement when combined with 3.5 microMolar VBE ([3]; enhancer level 50 microMolar): 300% | Percent Enhancement when combined with 3.5 microMolar VBE ([3]; enhancer level 100 microMolar): 310% | Percent Enhancement when combined with 3.5 microMolar VBE ([3]; enhancer level 200 microMolar): 410% | Percent Enhancement when combined with 3.5 microMolar VBE ([3]; enhancer level 1000 microMolar): 420% | % Enhancement [1]: 14.64%
Molecule: CC(=O)OC(C)(C)Cc1ccccc1 [Alpha, Alpha Dimethylphenethyl Acetate]

% Enhancement [1]: 28.1%
Molecule: C/C=C\C(=O)C1C(C)=CCCC1(C)C (stereo not drawn) [Alpha-Damascone]

activation level (calcium flux) ([4]; concentration of 300 nM): about 14127.16 calcium ions
Molecule: COc1cc(CNC(=O)CCCC/C=C/C(C)C)ccc1O [Capsaicin, reference compound]
'Hotness' (as log Scoville Units) ([2]; burning sensation): 7.2 log Scoville Units

% Enhancement [1]: 23.46%
Molecule: CCCC(=O)OC/C=C(\C)CCC=C(C)C [Geranyl Butyrate]

% Enhancement [1]: 10.16%
Molecule: CCCCCCCO [Heptyl Alcohol]

% Enhancement [1]: 13.74%
Molecule: C=C(OCC)C1C(C)(C)CC(=O)CC1(C)C [Kephalis]

% Enhancement [1]: 14.07%
Molecule: COC(Cc1ccccc1)OC [Phenylacetaldehyde Dimethyl Acetal]

% Enhancement [1]: 10.62%
Molecule: CCC/C=C/COC(C)=O [Trans-2-Hexenyl Acetate]

activation level (calcium flux) ([4]; concentration of 1 mM): approximately 14942.84 calcium ions
Molecule: CCCCOCc1ccc(O)c(OC)c1 [Vanillyl Butyl Ether]
'Hotness' (as log Scoville Units) ([2]; burning sensation): 5.7 log Scoville Units | taste versus control [5, 6]: improved taste over the control

% Enhancement [1]: 12.83%
Molecule: C=C(C)C1CC=C(C)C(OC(C)=O)C1 (centres unmarked) [carvyl acetate]

% Enhancement [1]: 28.53%
Molecule: C/C=C/C(=O)C1C(C)C=CCC1(C)C (centres unmarked) [delta-damascone]

direct activation of TRPV1 (TRPV1 activator or not) [4]: not considered to be a TRPV1 activator
Molecule: C/C=C/c1ccc(OCC)c(O)c1 [vanitrope]
taste versus control ([5]; hours 1-3 for bothersome and hours 1-2 for bad aftertaste): taste improvement

Percent Enhancement when combined with 3.5 microMolar VBE ([3]; enhancer level 50 microMolar): 25% | Percent Enhancement when combined with 3.5 microMolar VBE ([3]; enhancer level 100 microMolar): 100% | Percent Enhancement when combined with 3.5 microMolar VBE ([3]; enhancer level 200 microMolar): 175% | Percent Enhancement when combined with 3.5 microMolar VBE ([3]; enhancer level 1000 microMolar): 400% | % Enhancement [1]: 12.33%
Molecule: Farnesene
